Reference: patent US11426402B2, “IRE1 activating compounds for use in therapy” (The Scripps Research Institute, priority 2019, dated 2022)

Assays:
[1] = tested on: XBP1 splicing; experiment: XBP1 splicing in wild-type and Ire1-deficient MEF cells; format: cell-based, mouse; conditions: for XBP1 splicing: Ire1-deficient MEF cells; for IRE1-dependent XBP1 splicing: wild-type MEF cells
Description: To amplify the spliced and unspliced XBP1 mRNA, XBP1 primers were used as described previously.^21 PCR products were electrophoresed on 2.5% agarose gel. GAPDH (forward 5′[…]3′, reverse 5′[…]3′) was used as a loading control. The size difference between the spliced and the unspliced XBP1 is 26 nucleotides.
Compounds 474, 198, and 970 were selected as exemplary hits based on their selective IRE1-depedendent induction of DNAJB9, their EC50 of XBP1-RLuc activation of <3 μM and their high maximal activation of IRE1signaling measured by both XBP1s-RLuc activity and DNAJB9 expression (>50% that observed with Tg). […] However, this splicing was not observed in Ire1-deficient MEF cells, further confirming that these compounds increase XBP1 splicing by an IRE1-dependent mechanism.

[2] = molecular target: IRE1 (Homo sapiens, UniProt O75460); experiment: IRE1 phosphorylation by Phos-tag SDS-PAGE and immunoblotting in HEK293T cells; format: cell-based; conditions: test compound alone, 10 μM, 4 hours
Description: FIG. 3A-FIG. 3D. […] Error bars show SEM for n=3. […] Error bars show SEM for n=3. […] Error bars show SEM for n=3.
Cell lysates were prepared as previously described in RIPA buffer (50 mM Tris, pH 7.5, 150 mM NaCl, 0.1% SDS, 1% Triton X-100, 0.5% deoxycholate and protease inhibitor cocktail (Roche). Total protein concentration in cellular lysates was normalized using the Bio-Rad protein assay. Lysates were then denatured with 1× Laemmli buffer+100 mM DTT and boiled before being separated by SDS-PAGE. Samples were transferred onto nitrocellulose membranes (Bio-Rad) for immunoblotting and blocked with 5% milk in Tris-buffered saline, 0.5% Tween-20 (TBST) following incubation overnight at 4° C. with primary antibodies. Membranes were washed in TBST, incubated with IR-Dye conjugated secondary antibodies and analyzed using Odyssey Infrared Imaging System (LI-COR Biosciences). Quantification was carried out with LI-COR Image Studio software.
Compounds that activate IRE1 through binding the IRE1 kinase active site and inhibiting IRE1 autophosphorylation can elicit off-target activity likely associated with binding to other protein kinases.^20, 35, 36 Thus, the purpose of this example was to define the dependence of the present compounds on IRE1 kinase activity. HEK293T cells were treated with compound 198, 474, or 970 in the absence or presence of Tg, and IRE1 phosphorylation was monitored by using Phos-tag SDS-PAGE and immunoblotting. As a control, cells were treated with APY29—an IRE1 kinase site inhibitor that allosterically activates the IRE1 RNAse^20 in the absence or presence of Tg.

[3] = tested on: stress-responsive signaling pathways; experiment: Gene Ontology and stress-responsive geneset analysis of RNAseq in HEK293T cells; format: cell-based, human
Description: (§1) Cells were lysed and total RNA collected using the RNeasy mini kit, according to manufacturer's instructions (Qiagen). Conventional RNA-seq was conducted via BGI Americas on the BGI Proprietary platform, providing single-end 50 bp reads at 20 million reads per sample. Alignment of sequencing data was done using DNAstar Lasergene SeqManPro to the GRCh37. p 13 human genome reference assembly, and assembly data were imported into ArrayStar 12.2 with QSeq (DNAStar Inc.) to quantify the gene expression levels and normalization to reads per kilobase per million (RPKM). Differential expression analysis and statistical significance calculations between different conditions was assessed using “DESeq” in R, compared to vehicle-treated cells, using a standard negative binomial fit of the RPKM data to generate Fold Change quantifications.

[4] = tested on: XBP1s; experiment: Overlap of compound-induced genes with dox-dependent XBP1s activation in HEK293DAX cells; format: cell-based, human
Description: as §1
These cells stably express both doxycycline (dox)-inducible XBP1s and trimethoprim (TMP) regulated DHFR.ATF6, allowing stress-independent activation of XBP1s and/or ATF6 signaling through addition of the activating ligands dox or TMP, respectively^8.

[5] = tested on: secreted Aβ; experiment: Aβ ELISA of media conditioned on CHO 7PA2 cells (V717F APP); format: cell-based; conditions: CHO 7PA2, 10 μM
Description: FIGS. 5A-5D. […] Cells were treated for 18 hours, media was then replaced and conditioned in the presence of treatments for 24 hours before harvesting for ELISA assay. Error bars represent SEM for n=3 replicates. Statistics calculated from one-tailed Student's t-test. *p<0.05, **p<0.01, ***p<0.001 (FIG. 5A). Quantification of media and lysate immunoblots from 474 treatment (10 μM) of APP. Error bars represent Standard Deviation for n=3 replicates. Statistics calculated from one-tailed Student's t-test. *p<0.05, **p<0.01 ***p<0.001 (FIG. 5B). Plot showing fraction of total remaining APP at each time point after S35 metabolic labeling of newly synthesized protein, accounting for the sum of APP in lysate and media. Error bars represent Standard Deviation for n=3 replicates. Statistics calculated from one-tailed Student's t-test. *p<0.05, **p<0.01, ***p<0.001 (FIG. 5C). Plot showing fraction of secreted APP collected at 2 hours after metabolic labeling. Error bars represent Standard Deviation for n=3 replicates. Statistics calculated from one-tailed Student's t-test. *p<0.05, **p<0.01, ***p<0.001 (FIG. 5D).
(§2) 7PA2 or 7WD10 cells were cultured on 96-well plates (Corning) and treated with IRE1 activating compounds +/−4 μ8c overnight. The medium was then replaced at 50% volume with treatment remaing, culture medium was collected after 24 hours. The medium was analyzed by an AP ELISA as follows. Monoclonal 6E10 anti-Aβ(residues 1-17) mouse IgG1, (Biolegend) was coated in […] carbonate buffer, pH 9.6, at 4° C. overnight on high binding assay black plates (Costar), washed with TBST (tris buffered saline with 0.05% Tween 20) and blocked with 5% non-fat milk in TBST. Samples and standards (condition 7PA2 media) were incubated for 1.5 hr, followed by addition of 4G8 antibody [anti-Aβ residues 17-24, mouse IgG2b (Biolegend)] conjugated to horseradish peroxidase (hrp) and incubated for 1.5 hr at 25° C. After washing, ABM substrate was added, followed by detection with an absorbance plate reader.
(§3) ELISA was used to monitor Aβ in media conditioned on a CHO cell line stably expressing the destabilized, disease-associated V717F APP mutant (CHO^7PA2)^45 treated with or without compounds 198, 474, and 970. […] The reduction in A secretion can be attributed to IRE1 activation because the reduced extracellular accumulation of Aβ is blocked by co-treatment with the active site IRE1 inhibitor 4 μ8c (FIG. 5A).

[6] = tested on: CHO 7PA2 cells; experiment: CHO 7PA2 viability; format: cell-based
[7] = tested on: extracellular Aβ; experiment: Aβ in media conditioned on CHO 7WD10 cells (wild-type APP); format: cell-based; conditions: CHO 7WD10, APP WT
Description: as §2, §3

[8] = tested on: CHO 7WD10 cells; experiment: CHO 7WD10 viability; format: cell-based

Sequence of IRE1 (O75460 19-977): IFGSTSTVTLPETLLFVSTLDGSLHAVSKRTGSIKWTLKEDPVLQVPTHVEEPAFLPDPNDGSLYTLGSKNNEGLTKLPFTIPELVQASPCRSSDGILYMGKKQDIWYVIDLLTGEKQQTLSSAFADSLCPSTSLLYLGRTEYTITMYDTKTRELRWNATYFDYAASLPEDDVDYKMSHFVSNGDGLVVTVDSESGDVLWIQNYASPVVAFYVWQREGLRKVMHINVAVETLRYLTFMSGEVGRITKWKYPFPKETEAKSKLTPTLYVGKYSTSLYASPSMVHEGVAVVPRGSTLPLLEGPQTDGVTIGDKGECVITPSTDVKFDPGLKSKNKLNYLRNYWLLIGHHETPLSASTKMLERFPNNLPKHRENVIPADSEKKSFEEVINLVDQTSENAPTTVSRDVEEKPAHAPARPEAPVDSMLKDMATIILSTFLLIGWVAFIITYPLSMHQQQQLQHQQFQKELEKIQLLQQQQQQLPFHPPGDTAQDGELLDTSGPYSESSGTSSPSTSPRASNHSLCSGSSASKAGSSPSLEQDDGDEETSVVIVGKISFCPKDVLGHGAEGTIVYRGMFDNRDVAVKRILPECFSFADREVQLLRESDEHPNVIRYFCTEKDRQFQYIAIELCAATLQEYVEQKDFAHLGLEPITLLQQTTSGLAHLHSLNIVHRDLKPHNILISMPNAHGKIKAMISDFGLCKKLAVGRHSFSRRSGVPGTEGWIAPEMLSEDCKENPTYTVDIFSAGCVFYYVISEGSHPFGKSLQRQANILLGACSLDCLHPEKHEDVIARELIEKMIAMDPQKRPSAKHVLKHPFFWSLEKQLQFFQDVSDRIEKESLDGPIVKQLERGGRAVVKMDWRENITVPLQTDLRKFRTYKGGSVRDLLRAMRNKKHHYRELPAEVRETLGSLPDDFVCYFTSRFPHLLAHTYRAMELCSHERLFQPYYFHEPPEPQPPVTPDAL

In the case of CCOC(CNC(=O)C1CCCN(Cc2nc(-c3ccc(Cl)cc3)oc2C)C1)OCC (stereo not drawn) [Compound 198], the XBP1 splicing [1] is reported as “not observed”, the “IRE1-dependent XBP1 splicing” value [1] is reported as “increased” and the “phosphorylated IRE1” value [2] is reported as “increased phosphorylated IRE1”. The “Gene Ontology analysis of induced genes” value [3] was “primarily induce expression of genes annotated with GO terms related to ER stress and the UPR”, the “activation of other stress responsive signaling pathways apart from IRE1/XBP1s” value (“activation … from IRE1/XBP1s” below) [3] was “to a lesser extent” and the “overlap of genes induced >1.2 fold with dox-dependent XBP1s activation” value (“overlap of genes induced >1.2 fold” below) [4] was “less overlap”. The “Aβ in conditioned media relative to control conditioned media” value [5] was 50%, the “CHO 7PA2 viability” value [6] was “did not significantly influence” and the “extracellular Aβ in conditioned media” value [7] was “reduced extracellular Aβ”. For the same compound, the cellular viability [8] was “without impacting cellular viability”.
For Cc1ccc(OCCN(C)C(=O)Cn2cc(NC(=O)CCOc3ccccc3)cn2)cc1 [Compound 474], the XBP1 splicing [1] was “not observed”, the “IRE1-dependent XBP1 splicing” value [1] was “increased” and the “phosphorylated IRE1” value [2] was “increased phosphorylated IRE1”. The “Gene Ontology analysis of induced genes” value [3] was “primarily induce expression of genes annotated with GO terms related to ER stress and the UPR”, the “activation … from IRE1/XBP1s” value [3] was “do not significantly activate” and the “overlap of genes induced >1.2 fold” value [4] was greater than 80%. For the same compound, the “top 100 induced genes overlapping with genes induced by dox-dependent XBP1s activation” value [4] was “majority”, the “Aβ in conditioned media relative to control conditioned media” value [5] was 50% and the “CHO 7PA2 viability” value [6] was “did not significantly influence”. For the same compound, the “extracellular Aβ in conditioned media” value [7] was “reduced extracellular Aβ” and the cellular viability [8] was “without impacting cellular viability”.
With O=C(CN(Cc1ccc(Cl)cc1)S(=O)(=O)c1cccnc1)N1CCc2ccccc21 [Compound 970] the XBP1 splicing [1] was “not observed”, the “IRE1-dependent XBP1 splicing” value [1] was “increased” and the “phosphorylated IRE1” value [2] was “increased phosphorylated IRE1”. The “Gene Ontology analysis of induced genes” value [3] was “primarily induce expression of genes annotated with GO terms related to ER stress and the UPR”, the “activation … from IRE1/XBP1s” value [3] was “do not significantly activate” and the “induction of most non-overlapping genes” value [4] was less than 1.3 fold. The “overlap of genes induced >1.2 fold” value [4] was greater than 60%, the “top 100 induced genes overlapping with genes induced by dox-dependent XBP1s activation” value [4] was “majority” and the “Aβ in conditioned media relative to control conditioned media” value [5] was 50%. The “CHO 7PA2 viability” value [6] was “did not significantly influence”, the “extracellular Aβ in conditioned media” value [7] was “reduced extracellular Aβ” and the cellular viability [8] was “without impacting cellular viability”.
